# Assay results reported in patent US20180000745A1, “CRUCIFERIN COATED NANOPARTICLES” (priority 2016, published 2018).
# Tested on: Caco-2 cells
# Assay: Cell uptake of coumarin-6-loaded particles by confocal microscopy
# Assay type: cell-based
# Conditions: 6 h incubation; particles 0.5 mg/mL, coumarin-6 […] in DMEM
# Method: To study the cell uptake of nanoparticles in Caco-2 cells, coumarin-6, as a fluorescent marker, was encapsulated into the nanoparticles. The cellular uptake of coumarin-6-loaded nanoparticles was compared with free coumarin-6 (not encapsulated). In brief, 1 mL of coumarin-6 solution in ethanol at concentrations ranging from 10 to 400 μg/mL was mixed with 9 mL 2 mg/mL chitosan solution in 0.1 M acetic acid. 9 mL of 5 mg/mL cruciferin solution (solubilized at pH 12) was added dropwise to the solution while stirring. The pH of the suspension was adjusted to 5.5, stirred for 2 h and then centrifuged at 40000 g and 4° C. for 30 min, Loaded particles pellet was collected, washed twice with water and centrifuged to remove free coumarin-6. The labelled particles were re-suspended in DMEM medium at concentrations of 0.1, 0.5 and 1 mg/mL. The size and zeta potential of the re-suspended particles were measured. Caco-2 cells (10^5 cells/well) were seeded on cover glasses placed in 6-well plates (Costar, Corning, N.Y.), and incubated until cells were about 80% confluent. 2.5 mL of labelled-particles suspensions or free coumarin-6 solution in DMEM medium was added to each well and incubated for 6 h at 37° C. Then, the cells were washed three times with PBS to remove free nanoparticles and coumarin-6. Cell membranes were stained with 10 μg/mL Alexa Fluor 594-Concanavalin A conjugate in PBS for 10 min. […]
smiles,measurement,value
"CCN(CC)c1ccc2cc(-c3nc4ccccc4s3)c(=O)oc2c1 [free coumarin-6, Coumarin 6]",fluorescence within cells (cell uptake),no noticeable signal was detected
